How the values were obtained:
Assay type in all cases: in vivo
seed = assay: Replicated field plots comparing two lipoxygenase inhibitors as seed treatments, Safford, Arizona; settings: for Germination % / Seedling Ht. (cm) / Surviving Stand %: inhibitor coated at 2.0 g per kg dry seed; for Germination % / Seedling Ht. (cm) / Surviving Stand % / Emergence Coeff.: fungicide co-treatment, mean ± standard error; for Emergence Coeff.: smaller coefficient = faster seedling emergence, 2.0 g per kg dry seed
From the text: The presence of lipoxygenase isoenzymes has always been considered a necessary enzymatic constituent of seed, with the enzyme especially predominant in oil seeds. The detrimental effects of lipoxygenase activity on the viability and storage attributes of seeds have been reported by a number of authors. (Leopold; Parrish; Pfeiffer, et al.: and Hajika, et al.)
Propyl gallate is the inhibitor and antioxidant of choice for inclusion in the improvement of U.S. Pat. No. 4,209,316 described in this application. […] Selected location: Safford, Arizona Experimental Research Station. Each data entry represents the mean of replicated random samples plus or minus the standard error. The smaller the emergence coefficient, the faster the speed of seedling emergence from the soil. All treatments except the first control received a fungicide co-treatment. Lipoxygenase inhibitors were coated on the seed at a rate of 2.0 grams per kilogram of dry seed.

Acala type cottons = assay: Harvested seed cotton weight of container grown cottons, Tucson, Ariz.
From the text: Table three illustrates the comparative advantage of the combination of buffered AMP and propyl gallate liquid formulation applied to two sets of Acala type cottons container grown in Tucson, Ariz. An extended harvest period was possible. Seed cotton was hand picked over several weeks. Bolls with fiber and seed were dried, individually weighed, and treatments were separated and bulked together. Osmocote complete fertilizer was applied twice—at two and four weeks—following the chemical formulation applications.

seeds = assay: Classical antioxidants applied to seeds at much higher concentrations

Compound	Germination % (seed) [%]	Seedling Ht. (cm) (seed)	Surviving Stand % (seed) [%]	effectiveness as lipoxygenase inhibitor seed treatment (seed; seed treatment with inhibitor alone)	Emergence Coeff. (seed)	Combined weight of harvested seed cotton per group (in grams) (Acala type cottons; group one) [grams]	Combined weight of harvested seed cotton per group (in grams) (Acala type cottons; group two) [grams]	enhancement of seed germination and viability traits (seeds)
Oc1ccc(O)cc1 [Hydroquinone]	22.9 ± 3.1	16.6 ± 0.4	60.6 ± 3.5	effective	0.50 ± 0.04			
CCCOC(=O)c1cc(O)c(O)c(O)c1 [Propyl Gallate, propyl gallate]	23.0 ± 2.3	17.3 ± 0.6	57.8 ± 3.0		0.52 ± 0.03	640	423	
O=C1O[C@H]([C@@H](O)CO)C(O)=C1O [ascorbic acid]								no enhancement
Cc1cc(C(C)(C)C)c(O)c(C(C)(C)C)c1 [butylated hydroxylated toluene]								no enhancement
vitamin E								no enhancement
